From the NIST ThermoML archive (doi:10.1021/acs.jced.7b01031)

Conditions: Pulse-echo method

Cl [hydrogen chloride]
Liquid
Conditions | speed of sound [m/s]
218.3 K | 940
224.3 K | 910
229.2 K | 887
233.1 K | 865
243 K | 814
248 K | 790
252.9 K | 762
258 K | 734
263 K | 705
268 K | 676
273 K | 646

Fluid (supercritical or subcritical phases)
Conditions | speed of sound [m/s]
267 K, 7500 kPa | 735
269.9 K, 9700 kPa | 740
274.8 K, 13900 kPa | 751
279.8 K, 5500 kPa | 634
279.8 K, 18000 kPa | 761
284.8 K, 8500 kPa | 640
284.8 K, 22200 kPa | 773
289.7 K, 11800 kPa | 652
289.8 K, 26500 kPa | 783
292.9 K, 6900 kPa | 564
294.8 K, 15600 kPa | 666
294.8 K, 30800 kPa | 794
295 K, 8000 kPa | 567
299.8 K, 19200 kPa | 678
300 K, 11100 kPa | 582
300 K, 35100 kPa | 805
303.1 K, 37700 kPa | 810
305 K, 14200 kPa | 595
305 K, 22900 kPa | 690
305 K, 39300 kPa | 814
310 K, 17300 kPa | 608
310 K, 26300 kPa | 700
315 K, 20400 kPa | 621
315 K, 30000 kPa | 712
320 K, 10800 kPa | 425
320 K, 23500 kPa | 632
320 K, 33600 kPa | 722
325 K, 12900 kPa | 441
325 K, 26600 kPa | 643
325 K, 37200 kPa | 732
328 K, 39300 kPa | 738
330 K, 15100 kPa | 456
330 K, 29800 kPa | 654
335 K, 17200 kPa | 469
335 K, 32900 kPa | 665
340 K, 19300 kPa | 482
340 K, 36000 kPa | 675
345 K, 21500 kPa | 494
345 K, 39200 kPa | 685
350 K, 23700 kPa | 506
355 K, 25900 kPa | 517
359.9 K, 21500 kPa | 433
360 K, 28000 kPa | 527
365 K, 30200 kPa | 537
369.9 K, 24900 kPa | 454
370 K, 32400 kPa | 547
374.9 K, 34600 kPa | 556
379.9 K, 28400 kPa | 473
379.9 K, 36800 kPa | 565
385.9 K, 39400 kPa | 575
389.9 K, 31800 kPa | 491
394.9 K, 22700 kPa | 371
399.9 K, 12100 kPa | 324
399.9 K, 35300 kPa | 508
404.9 K, 24800 kPa | 386
409.9 K, 21600 kPa | 356
411.9 K, 39500 kPa | 526
414.9 K, 26900 kPa | 400
419.9 K, 13200 kPa | 339
419.9 K, 23100 kPa | 368
424.9 K, 29000 kPa | 414
434.9 K, 31000 kPa | 426
439.9 K, 14300 kPa | 355
439.9 K, 26100 kPa | 390
444.9 K, 33100 kPa | 438
459.9 K, 29100 kPa | 411
460 K, 15500 kPa | 369
460 K, 36100 kPa | 456
474.9 K, 39200 kPa | 472
479.9 K, 16500 kPa | 383
479.9 K, 32000 kPa | 430
